Test results published in the kinase profiling compilation of Christmann-Franck et al. (2016).

Assays:
Assay in all cases: KINOMEscan competition binding
Details in all cases: compound 10.0 µM
ADCK3 (human) = ADCK3 (human) (UniProt Q8NI60)
AURKC (human) = AURKC (human) (UniProt Q9UQB9)
BMPR1B (human) = BMPR1B (human) (UniProt O00238)
BRSK1 (human) = BRSK1 (human) (UniProt Q8TDC3)
CAMKK1 (human) = CAMKK1 (human) (UniProt Q8N5S9)
CDC42BPB (human) = CDC42BPB (human) (UniProt Q9Y5S2)
CDK17 (human) = CDK17 (human) (UniProt Q00537)
CDK18 (human) = CDK18 (human) (UniProt Q07002)
Sequence of CDK18 (human) (Q07002 whole entry, looked up): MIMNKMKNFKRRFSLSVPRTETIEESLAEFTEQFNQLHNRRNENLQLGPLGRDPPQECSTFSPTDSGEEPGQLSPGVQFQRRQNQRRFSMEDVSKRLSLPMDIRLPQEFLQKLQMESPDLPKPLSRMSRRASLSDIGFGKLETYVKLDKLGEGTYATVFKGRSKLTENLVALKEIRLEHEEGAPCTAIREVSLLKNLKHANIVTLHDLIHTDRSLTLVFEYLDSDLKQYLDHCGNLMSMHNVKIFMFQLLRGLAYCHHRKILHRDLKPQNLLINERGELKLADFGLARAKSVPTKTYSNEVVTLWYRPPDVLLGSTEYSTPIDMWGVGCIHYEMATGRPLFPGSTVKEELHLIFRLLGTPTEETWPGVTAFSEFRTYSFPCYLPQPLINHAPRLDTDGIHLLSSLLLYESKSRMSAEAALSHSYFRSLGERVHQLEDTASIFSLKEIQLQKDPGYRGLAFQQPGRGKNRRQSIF

CSK (human) = CSK (human) (UniProt P41240)
CaMK1 (human) = CaMK1 (human) (UniProt Q14012)
EPHB4 (human) = EPHB4 (human) (UniProt P54760)
FGFR4 (human) = FGFR4 (human) (UniProt P22455)
GRK4 (human) = GRK4 (human) (UniProt P32298)
Sequence of GRK4 (human) (P32298 whole entry, looked up): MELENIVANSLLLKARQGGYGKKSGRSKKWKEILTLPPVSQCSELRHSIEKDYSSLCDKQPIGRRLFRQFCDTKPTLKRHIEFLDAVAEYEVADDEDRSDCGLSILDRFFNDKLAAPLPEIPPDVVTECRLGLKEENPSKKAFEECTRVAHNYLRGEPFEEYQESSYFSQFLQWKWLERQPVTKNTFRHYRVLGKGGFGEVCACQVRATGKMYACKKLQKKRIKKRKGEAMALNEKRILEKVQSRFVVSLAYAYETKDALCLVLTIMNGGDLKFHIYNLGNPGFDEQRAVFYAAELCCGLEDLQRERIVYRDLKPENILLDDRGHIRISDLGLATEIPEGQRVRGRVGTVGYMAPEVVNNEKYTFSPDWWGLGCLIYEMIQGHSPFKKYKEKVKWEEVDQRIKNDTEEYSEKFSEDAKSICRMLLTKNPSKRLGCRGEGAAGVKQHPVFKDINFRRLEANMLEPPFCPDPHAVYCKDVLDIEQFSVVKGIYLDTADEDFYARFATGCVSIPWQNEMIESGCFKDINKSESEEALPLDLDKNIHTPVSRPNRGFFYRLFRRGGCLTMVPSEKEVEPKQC

ICK (human) = ICK (human) (UniProt Q9UPZ9)
Sequence of ICK (human) (Q9UPZ9 whole entry, looked up): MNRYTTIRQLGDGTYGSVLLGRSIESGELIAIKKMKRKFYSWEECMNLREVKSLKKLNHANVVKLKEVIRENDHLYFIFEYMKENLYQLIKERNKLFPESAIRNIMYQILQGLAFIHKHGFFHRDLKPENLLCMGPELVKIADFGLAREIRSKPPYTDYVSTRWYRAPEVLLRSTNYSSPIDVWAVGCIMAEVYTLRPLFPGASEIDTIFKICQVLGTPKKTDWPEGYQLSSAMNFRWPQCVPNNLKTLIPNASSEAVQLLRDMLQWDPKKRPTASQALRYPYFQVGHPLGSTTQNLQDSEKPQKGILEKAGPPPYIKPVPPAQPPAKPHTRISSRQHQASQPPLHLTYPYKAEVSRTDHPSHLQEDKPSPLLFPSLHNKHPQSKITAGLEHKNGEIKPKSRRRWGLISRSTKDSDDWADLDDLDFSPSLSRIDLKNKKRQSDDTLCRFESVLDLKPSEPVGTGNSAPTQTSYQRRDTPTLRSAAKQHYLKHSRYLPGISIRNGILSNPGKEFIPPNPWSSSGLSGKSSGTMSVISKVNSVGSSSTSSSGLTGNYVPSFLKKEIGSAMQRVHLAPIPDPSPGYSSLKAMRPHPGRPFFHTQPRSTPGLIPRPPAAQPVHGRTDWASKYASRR

LTK (human) = LTK (human) (UniProt P29376)
MAP3K2 (human) = MAP3K2 (human) (UniProt Q9Y2U5)
MAP4K1 (human) = MAP4K1 (human) (UniProt Q92918)
MAPK10 (human) = MAPK10 (human) (UniProt P53779)
Sequence of MAPK10 (human) (P53779 whole entry, looked up): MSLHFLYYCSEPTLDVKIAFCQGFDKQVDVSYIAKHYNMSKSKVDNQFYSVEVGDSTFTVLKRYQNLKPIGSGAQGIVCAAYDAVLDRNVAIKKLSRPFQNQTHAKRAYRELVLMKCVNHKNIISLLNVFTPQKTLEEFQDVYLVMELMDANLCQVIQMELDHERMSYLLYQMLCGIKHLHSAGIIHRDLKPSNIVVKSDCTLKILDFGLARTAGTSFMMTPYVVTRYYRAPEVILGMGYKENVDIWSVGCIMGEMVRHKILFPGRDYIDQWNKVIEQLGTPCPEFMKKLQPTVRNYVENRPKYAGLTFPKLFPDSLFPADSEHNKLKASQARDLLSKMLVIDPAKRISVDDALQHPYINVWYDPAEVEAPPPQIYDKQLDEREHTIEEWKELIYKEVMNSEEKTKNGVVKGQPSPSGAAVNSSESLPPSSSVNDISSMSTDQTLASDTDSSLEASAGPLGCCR

MAPK15 (human) = MAPK15 (human) (UniProt Q8TD08)
MAPK3 (human) = MAPK3 (human) (UniProt P27361)
MARK1 (human) = MARK1 (human) (UniProt Q9P0L2)
Sequence of MARK1 (human) (Q9P0L2 whole entry, looked up): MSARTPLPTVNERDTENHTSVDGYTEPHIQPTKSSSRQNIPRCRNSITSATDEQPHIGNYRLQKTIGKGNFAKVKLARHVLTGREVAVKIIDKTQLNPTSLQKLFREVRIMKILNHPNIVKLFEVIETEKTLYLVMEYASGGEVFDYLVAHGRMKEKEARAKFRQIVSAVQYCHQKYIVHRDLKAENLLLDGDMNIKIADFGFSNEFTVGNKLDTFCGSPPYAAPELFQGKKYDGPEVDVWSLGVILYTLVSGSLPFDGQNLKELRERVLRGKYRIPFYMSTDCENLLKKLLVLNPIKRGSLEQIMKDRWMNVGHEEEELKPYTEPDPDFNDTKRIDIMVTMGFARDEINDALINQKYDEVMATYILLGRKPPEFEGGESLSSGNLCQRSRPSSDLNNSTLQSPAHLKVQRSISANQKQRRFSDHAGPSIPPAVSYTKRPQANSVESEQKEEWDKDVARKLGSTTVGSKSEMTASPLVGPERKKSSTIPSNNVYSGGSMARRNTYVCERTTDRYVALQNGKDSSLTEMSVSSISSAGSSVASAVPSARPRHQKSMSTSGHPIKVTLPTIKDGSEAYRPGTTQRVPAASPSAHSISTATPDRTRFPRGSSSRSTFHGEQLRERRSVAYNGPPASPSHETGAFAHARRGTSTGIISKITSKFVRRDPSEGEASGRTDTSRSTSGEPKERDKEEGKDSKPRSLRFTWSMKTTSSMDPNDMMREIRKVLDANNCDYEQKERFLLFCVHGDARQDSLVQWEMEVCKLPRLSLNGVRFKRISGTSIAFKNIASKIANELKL

[1] = test system: MET (human), P08581 [Y1235D]
MYO3A (human) = MYO3A (human) (UniProt Q8NEV4)
NEK7 (human) = NEK7 (human) (UniProt Q8TDX7)
NTRK1 (human) = NTRK1 (human) (UniProt P04629)
PAK6 (human) = PAK6 (human) (UniProt Q9NQU5)
PRKD2 (human) = PRKD2 (human) (UniProt Q9BZL6)
PRKG1 (human) = PRKG1 (human) (UniProt Q13976)
[2] = test system: RET (human), P07949 [M918T]
ROCK1 (human) = ROCK1 (human) (UniProt Q13464)
RPS6KA1 KD1 (human) = RPS6KA1 KD1 (human) (UniProt Q15418)
RPS6KA5 KD1 (human) = RPS6KA5 KD1 (human) (UniProt O75582)
SRPK1 (human) = SRPK1 (human) (UniProt Q96SB4)
TBK1 (human) = TBK1 (human) (UniProt Q9UHD2)
TEK (human) = TEK (human) (UniProt Q02763)
TLK1 (human) = TLK1 (human) (UniProt Q9UKI8)
Sequence of TLK1 (human) (Q9UKI8 whole entry, looked up): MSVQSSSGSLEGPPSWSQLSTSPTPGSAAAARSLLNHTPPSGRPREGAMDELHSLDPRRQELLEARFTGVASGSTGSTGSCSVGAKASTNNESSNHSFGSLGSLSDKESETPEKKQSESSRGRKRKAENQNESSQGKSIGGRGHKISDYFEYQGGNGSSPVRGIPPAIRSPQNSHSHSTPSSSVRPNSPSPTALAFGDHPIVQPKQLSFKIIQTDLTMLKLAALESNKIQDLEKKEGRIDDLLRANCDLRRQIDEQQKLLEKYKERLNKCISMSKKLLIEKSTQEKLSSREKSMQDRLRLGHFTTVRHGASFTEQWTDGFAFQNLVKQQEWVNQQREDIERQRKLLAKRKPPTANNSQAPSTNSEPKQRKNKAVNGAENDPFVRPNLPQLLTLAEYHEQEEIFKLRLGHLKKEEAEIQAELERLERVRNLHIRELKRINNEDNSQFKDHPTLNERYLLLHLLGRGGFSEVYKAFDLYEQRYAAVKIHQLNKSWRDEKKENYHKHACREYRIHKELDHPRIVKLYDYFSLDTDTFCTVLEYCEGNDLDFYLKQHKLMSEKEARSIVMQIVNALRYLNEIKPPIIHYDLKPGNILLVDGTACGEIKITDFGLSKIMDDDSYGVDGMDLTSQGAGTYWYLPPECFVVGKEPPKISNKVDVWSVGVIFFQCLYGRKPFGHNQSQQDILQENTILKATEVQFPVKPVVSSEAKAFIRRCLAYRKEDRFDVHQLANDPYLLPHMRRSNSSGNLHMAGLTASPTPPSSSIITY

TNK1 (human) = TNK1 (human) (UniProt Q13470)
Sequence of TNK1 (human) (Q13470 whole entry, looked up): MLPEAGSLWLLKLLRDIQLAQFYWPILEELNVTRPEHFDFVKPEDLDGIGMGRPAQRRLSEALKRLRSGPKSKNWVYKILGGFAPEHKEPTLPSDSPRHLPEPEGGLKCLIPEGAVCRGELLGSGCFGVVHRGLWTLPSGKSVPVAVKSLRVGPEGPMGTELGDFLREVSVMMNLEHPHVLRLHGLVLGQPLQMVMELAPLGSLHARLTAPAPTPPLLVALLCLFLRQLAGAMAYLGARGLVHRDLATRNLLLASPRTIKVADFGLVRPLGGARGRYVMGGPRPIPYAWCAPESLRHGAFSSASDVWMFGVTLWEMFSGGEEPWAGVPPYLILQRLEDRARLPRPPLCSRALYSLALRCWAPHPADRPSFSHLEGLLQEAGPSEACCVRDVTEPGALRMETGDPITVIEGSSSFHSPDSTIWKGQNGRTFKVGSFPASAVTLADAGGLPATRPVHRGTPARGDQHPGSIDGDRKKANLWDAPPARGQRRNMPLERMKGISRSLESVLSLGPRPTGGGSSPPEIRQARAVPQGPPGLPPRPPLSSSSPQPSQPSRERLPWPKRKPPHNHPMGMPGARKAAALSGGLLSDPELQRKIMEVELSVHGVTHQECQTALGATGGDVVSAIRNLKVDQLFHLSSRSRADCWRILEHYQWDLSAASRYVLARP

Sequence of CAMKK1 (human) (Q8N5S9 whole entry, looked up): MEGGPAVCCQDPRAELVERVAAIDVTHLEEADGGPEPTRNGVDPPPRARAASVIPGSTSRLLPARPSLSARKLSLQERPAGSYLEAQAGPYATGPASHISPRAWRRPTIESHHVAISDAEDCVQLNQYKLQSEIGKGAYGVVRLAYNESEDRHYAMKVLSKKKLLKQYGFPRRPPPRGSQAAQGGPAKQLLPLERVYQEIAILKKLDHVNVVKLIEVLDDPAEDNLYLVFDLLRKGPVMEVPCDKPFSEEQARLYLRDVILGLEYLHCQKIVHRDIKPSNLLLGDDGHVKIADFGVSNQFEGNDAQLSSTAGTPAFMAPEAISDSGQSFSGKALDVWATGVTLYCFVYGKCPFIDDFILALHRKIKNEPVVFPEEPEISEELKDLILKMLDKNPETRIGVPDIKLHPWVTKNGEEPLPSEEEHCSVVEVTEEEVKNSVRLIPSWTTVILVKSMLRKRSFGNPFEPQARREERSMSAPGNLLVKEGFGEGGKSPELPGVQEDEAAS

SMILES | kinase still bound, per cent of control (ADCK3 (human)) | kinase still bound, per cent of control (AURKC (human)) | kinase still bound, per cent of control (BMPR1B (human)) | kinase still bound, per cent of control (BRSK1 (human)) | kinase still bound, per cent of control (CAMKK1 (human)) | kinase still bound, per cent of control (CDC42BPB (human)) | kinase still bound, per cent of control (CDK17 (human)) | kinase still bound, per cent of control (CDK18 (human)) | kinase still bound, per cent of control (CSK (human)) | kinase still bound, per cent of control (CaMK1 (human)) | kinase still bound, per cent of control (EPHB4 (human)) | kinase still bound, per cent of control (FGFR4 (human)) | kinase still bound, per cent of control (GRK4 (human)) | kinase still bound, per cent of control (ICK (human)) | kinase still bound, per cent of control (LTK (human)) | kinase still bound, per cent of control (MAP3K2 (human)) | kinase still bound, per cent of control (MAP4K1 (human)) | kinase still bound, per cent of control (MAPK10 (human)) | kinase still bound, per cent of control (MAPK15 (human)) | kinase still bound, per cent of control (MAPK3 (human)) | also measured
CS(=O)(=O)N1CCN(Cc2cc3nc(-c4cccc5[nH]ncc45)nc(N4CCOCC4)c3s2)CC1 | 100% | 100% | 100% | 100% | 100% | 100% | 100% | 100% | 100% | 100% | 100% | 100% | 100% | 100% | 100% | 100% | 100% | 100% | 100% | 100% | kinase still bound, per cent of control (MARK1 (human)): 100%; kinase still bound, per cent of control [1]: 100%; kinase still bound, per cent of control (MYO3A (human)): 100%; kinase still bound, per cent of control (NEK7 (human)): 100%; kinase still bound, per cent of control (NTRK1 (human)): 100%; kinase still bound, per cent of control (PAK6 (human)): 100%; kinase still bound, per cent of control (PRKD2 (human)): 100%; kinase still bound, per cent of control (PRKG1 (human)): 100%; kinase still bound, per cent of control [2]: 100%; kinase still bound, per cent of control (ROCK1 (human)): 100%; kinase still bound, per cent of control (RPS6KA1 KD1 (human)): 100%; kinase still bound, per cent of control (RPS6KA5 KD1 (human)): 100%; kinase still bound, per cent of control (SRPK1 (human)): 100%; kinase still bound, per cent of control (TBK1 (human)): 100%; kinase still bound, per cent of control (TEK (human)): 100%; kinase still bound, per cent of control (TLK1 (human)): 100%; kinase still bound, per cent of control (TNK1 (human)): 100%
COc1cc(N2CCN(C)CC2)ccc1Nc1ncc2c(n1)N(C)c1ccccc1C(=O)N2C | 100% | 100% | 100% | 100% | 100% | 100% | 100% | 100% | 100% | 100% | 100% | 5.6% | 100% | 100% | 100% | 32% | 100% | 100% | 100% | 100% | kinase still bound, per cent of control (MARK1 (human)): 100%; kinase still bound, per cent of control [1]: 100%; kinase still bound, per cent of control (MYO3A (human)): 100%; kinase still bound, per cent of control (NEK7 (human)): 100%; kinase still bound, per cent of control (NTRK1 (human)): 100%; kinase still bound, per cent of control (PAK6 (human)): 100%; kinase still bound, per cent of control (PRKD2 (human)): 0.55%; kinase still bound, per cent of control (PRKG1 (human)): 100%; kinase still bound, per cent of control [2]: 100%; kinase still bound, per cent of control (ROCK1 (human)): 100%; kinase still bound, per cent of control (RPS6KA1 KD1 (human)): 100%; kinase still bound, per cent of control (RPS6KA5 KD1 (human)): 100%; kinase still bound, per cent of control (SRPK1 (human)): 100%; kinase still bound, per cent of control (TBK1 (human)): 100%; kinase still bound, per cent of control (TEK (human)): 100%; kinase still bound, per cent of control (TLK1 (human)): 100%; kinase still bound, per cent of control (TNK1 (human)): 0.4%
CCN(CC)CCCCNc1ncc2c(n1)N(C)C(=O)N(c1c(Cl)c(OC)cc(OC)c1Cl)C2 | 100% | 100% | 100% | 100% | 100% | 100% | 100% | 100% | 100% | 100% | 100% | 0.75% | 100% | 100% | 100% | 6.8% | 100% | 100% | 100% | 100% | kinase still bound, per cent of control (MARK1 (human)): 100%; kinase still bound, per cent of control [1]: 100%; kinase still bound, per cent of control (MYO3A (human)): 100%; kinase still bound, per cent of control (NEK7 (human)): 100%; kinase still bound, per cent of control (NTRK1 (human)): 100%; kinase still bound, per cent of control (PAK6 (human)): 100%; kinase still bound, per cent of control (PRKD2 (human)): 100%; kinase still bound, per cent of control (PRKG1 (human)): 100%; kinase still bound, per cent of control [2]: 100%; kinase still bound, per cent of control (ROCK1 (human)): 100%; kinase still bound, per cent of control (RPS6KA1 KD1 (human)): 100%; kinase still bound, per cent of control (RPS6KA5 KD1 (human)): 100%; kinase still bound, per cent of control (SRPK1 (human)): 100%; kinase still bound, per cent of control (TBK1 (human)): 100%; kinase still bound, per cent of control (TEK (human)): 100%; kinase still bound, per cent of control (TLK1 (human)): 100%; kinase still bound, per cent of control (TNK1 (human)): 100%
